Each block holds one molecule with its values, some of them ahead of it. Activity calls are given as the source filed them.
Tests used:
[1] = molecular target: Heat shock protein HSP 90-alpha (Homo sapiens, UniProt P07900); assay: Luminescence-based dose response biochemical high throughput screening assay for inhibitors of the Heat Shock Protein 90 (HSP90). [Related pubchem assays: 1831 (Summary AID.), 1846 (Confirmation screen.), 1789 (Primary screen.)]
[2] = molecular target: Voltage-gated inwardly rectifying potassium channel KCNH2 (Homo sapiens, UniProt Q12809); assay: hERG protection from proarrhythmic block, potency, dose response, cell-based, thallium flux (AID 2121); assay type: ADME
Sequence of Voltage-gated inwardly rectifying potassium channel KCNH2 (Q12809 whole entry): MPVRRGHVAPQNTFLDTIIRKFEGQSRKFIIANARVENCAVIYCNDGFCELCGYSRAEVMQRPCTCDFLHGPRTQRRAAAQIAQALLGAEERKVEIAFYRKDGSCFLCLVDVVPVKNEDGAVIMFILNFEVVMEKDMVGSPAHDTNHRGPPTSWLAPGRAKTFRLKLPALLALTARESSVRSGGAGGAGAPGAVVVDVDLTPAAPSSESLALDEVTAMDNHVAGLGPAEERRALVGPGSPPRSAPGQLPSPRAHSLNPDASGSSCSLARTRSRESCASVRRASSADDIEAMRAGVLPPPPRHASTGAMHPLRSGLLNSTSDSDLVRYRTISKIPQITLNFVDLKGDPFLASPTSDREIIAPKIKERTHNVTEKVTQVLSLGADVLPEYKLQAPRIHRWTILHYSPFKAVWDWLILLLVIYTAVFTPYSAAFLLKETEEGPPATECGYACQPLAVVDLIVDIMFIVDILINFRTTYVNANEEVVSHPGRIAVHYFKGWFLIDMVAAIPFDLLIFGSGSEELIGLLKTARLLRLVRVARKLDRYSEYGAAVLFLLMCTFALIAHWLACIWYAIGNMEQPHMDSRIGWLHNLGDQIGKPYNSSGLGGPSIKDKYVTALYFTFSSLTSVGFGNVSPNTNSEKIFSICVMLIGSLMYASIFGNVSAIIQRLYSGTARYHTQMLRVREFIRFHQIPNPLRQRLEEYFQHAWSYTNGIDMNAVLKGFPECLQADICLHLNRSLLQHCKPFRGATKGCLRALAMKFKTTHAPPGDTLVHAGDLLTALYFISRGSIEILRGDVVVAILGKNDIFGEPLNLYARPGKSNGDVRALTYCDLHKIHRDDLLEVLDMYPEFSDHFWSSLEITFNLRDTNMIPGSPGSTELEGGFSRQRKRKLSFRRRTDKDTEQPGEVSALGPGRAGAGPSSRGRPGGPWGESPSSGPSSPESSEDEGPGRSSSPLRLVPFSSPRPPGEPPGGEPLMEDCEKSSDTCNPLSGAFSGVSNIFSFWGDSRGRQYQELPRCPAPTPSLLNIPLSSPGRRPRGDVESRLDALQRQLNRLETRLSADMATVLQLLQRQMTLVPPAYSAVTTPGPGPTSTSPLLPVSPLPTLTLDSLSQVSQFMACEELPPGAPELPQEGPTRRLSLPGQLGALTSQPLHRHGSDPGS

[3] = Concentration-dependent survival of SW480 colon cancer line, luminescence detection with CellTiter-Glo, half-maximal inhibitory concentration (AID 1117338); assay type: functional
[4] = RKO cell viability reduction, dose response, CellTiter-Glo luminescence (AID 1117322); assay type: functional
[5] = cytotoxicity toward HCT116 cells – cell-based, CellTiter-Glo luminescence, IC50, dose response (AID 1117332); assay type: functional; settings: HCT-116
[6] = half-maximal inhibitory concentration for glucagon-like peptide-1 release, STC-1 cell line, dose-response (AID 1117345); assay type: functional, cell-based
[7] = cytotoxicity toward Colo320 cells – cell-based, CellTiter-Glo luminescence, IC50, dose response (AID 1117334); assay type: functional; settings: COLO 320
[8] = cytotoxicity toward HT-29 cells – cell-based, CellTiter-Glo luminescence, IC50, dose response (AID 1117330); assay type: functional
[9] = HCT116 cell viability decrease, GSK3B pretreatment – CellTiter-Glo, IC50, dose response (AID 1117339); assay type: functional; settings: HCT-116
[10] = Glucagon-like peptide 1 release potency, NCI-H716 cell line, dose-response, half-maximal inhibitory concentration (AID 1117344); assay type: functional, cell-based
[11] = molecular target: Luciferin 4-monooxygenase (Photinus pyralis, UniProt P08659); assay: firefly luciferase enzyme inhibitors, dose response, biochemical, luminescence (AID 1891)
Sequence of Luciferin 4-monooxygenase (P08659 whole entry): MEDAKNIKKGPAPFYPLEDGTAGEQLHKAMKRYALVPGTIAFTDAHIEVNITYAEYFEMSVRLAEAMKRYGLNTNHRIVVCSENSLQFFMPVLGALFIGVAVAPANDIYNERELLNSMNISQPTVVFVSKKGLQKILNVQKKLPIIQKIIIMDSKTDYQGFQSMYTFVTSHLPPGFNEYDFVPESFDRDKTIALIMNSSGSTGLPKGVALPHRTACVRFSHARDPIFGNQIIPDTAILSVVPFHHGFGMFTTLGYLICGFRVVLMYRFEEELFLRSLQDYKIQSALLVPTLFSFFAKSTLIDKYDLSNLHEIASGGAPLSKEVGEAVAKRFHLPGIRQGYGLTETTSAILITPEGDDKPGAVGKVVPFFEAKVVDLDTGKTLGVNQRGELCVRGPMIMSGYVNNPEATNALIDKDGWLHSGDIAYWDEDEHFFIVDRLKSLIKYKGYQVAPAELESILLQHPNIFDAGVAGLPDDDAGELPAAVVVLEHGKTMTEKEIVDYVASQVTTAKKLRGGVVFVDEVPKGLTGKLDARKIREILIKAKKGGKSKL

[12] = Luminescence Cell-Based Dose Confirmation HTS to Identify Inhibitors of Platelet Dense Granule Release. [Related pubchem assays: 1663 (Primary HTS), 1678 (Summary of Project)]; assay type: functional
[13] = Fluorescence Cell-Based Dose Response to Identify Inhibitors of Thrombin Receptor-Activating Peptide SFLLRN-Mediated P-Selectin Induction on Platelets. [Related pubchem assays: 1663 (Primary HTS), 1889 (retest at dose ), 1891 (counterscreen), 1678 (Project Summary)]; assay type: functional
[14] = molecular target: T1, Estrogen receptor (Homo sapiens, UniProt P03372);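 also: potency for inhibiting coactivator peptide recruitment to the receptor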
T1 sequence (P03372 whole entry): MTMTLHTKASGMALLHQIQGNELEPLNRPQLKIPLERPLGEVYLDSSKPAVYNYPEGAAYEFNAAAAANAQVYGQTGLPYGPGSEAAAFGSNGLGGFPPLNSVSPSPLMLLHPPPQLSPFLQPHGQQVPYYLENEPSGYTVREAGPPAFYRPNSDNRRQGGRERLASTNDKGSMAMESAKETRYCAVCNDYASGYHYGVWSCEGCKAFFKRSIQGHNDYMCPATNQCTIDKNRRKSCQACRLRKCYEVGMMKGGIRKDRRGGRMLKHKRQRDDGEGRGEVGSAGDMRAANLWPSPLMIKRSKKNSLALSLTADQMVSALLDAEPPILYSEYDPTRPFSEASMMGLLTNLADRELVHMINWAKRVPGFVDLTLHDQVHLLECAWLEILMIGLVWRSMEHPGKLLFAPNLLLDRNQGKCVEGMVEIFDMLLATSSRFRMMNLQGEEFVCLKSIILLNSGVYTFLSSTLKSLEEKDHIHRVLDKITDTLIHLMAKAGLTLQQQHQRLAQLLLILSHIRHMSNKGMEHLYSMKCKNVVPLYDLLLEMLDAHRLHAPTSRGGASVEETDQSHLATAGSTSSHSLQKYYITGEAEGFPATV

[15] = molecular target: Protein-tyrosine kinase 2-beta (Homo sapiens, UniProt Q14289);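 also: potency of inhibitors of PYK2 kinase phosphorylation of poly-GT substrate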
Sequence of Protein-tyrosine kinase 2-beta (Q14289 whole entry): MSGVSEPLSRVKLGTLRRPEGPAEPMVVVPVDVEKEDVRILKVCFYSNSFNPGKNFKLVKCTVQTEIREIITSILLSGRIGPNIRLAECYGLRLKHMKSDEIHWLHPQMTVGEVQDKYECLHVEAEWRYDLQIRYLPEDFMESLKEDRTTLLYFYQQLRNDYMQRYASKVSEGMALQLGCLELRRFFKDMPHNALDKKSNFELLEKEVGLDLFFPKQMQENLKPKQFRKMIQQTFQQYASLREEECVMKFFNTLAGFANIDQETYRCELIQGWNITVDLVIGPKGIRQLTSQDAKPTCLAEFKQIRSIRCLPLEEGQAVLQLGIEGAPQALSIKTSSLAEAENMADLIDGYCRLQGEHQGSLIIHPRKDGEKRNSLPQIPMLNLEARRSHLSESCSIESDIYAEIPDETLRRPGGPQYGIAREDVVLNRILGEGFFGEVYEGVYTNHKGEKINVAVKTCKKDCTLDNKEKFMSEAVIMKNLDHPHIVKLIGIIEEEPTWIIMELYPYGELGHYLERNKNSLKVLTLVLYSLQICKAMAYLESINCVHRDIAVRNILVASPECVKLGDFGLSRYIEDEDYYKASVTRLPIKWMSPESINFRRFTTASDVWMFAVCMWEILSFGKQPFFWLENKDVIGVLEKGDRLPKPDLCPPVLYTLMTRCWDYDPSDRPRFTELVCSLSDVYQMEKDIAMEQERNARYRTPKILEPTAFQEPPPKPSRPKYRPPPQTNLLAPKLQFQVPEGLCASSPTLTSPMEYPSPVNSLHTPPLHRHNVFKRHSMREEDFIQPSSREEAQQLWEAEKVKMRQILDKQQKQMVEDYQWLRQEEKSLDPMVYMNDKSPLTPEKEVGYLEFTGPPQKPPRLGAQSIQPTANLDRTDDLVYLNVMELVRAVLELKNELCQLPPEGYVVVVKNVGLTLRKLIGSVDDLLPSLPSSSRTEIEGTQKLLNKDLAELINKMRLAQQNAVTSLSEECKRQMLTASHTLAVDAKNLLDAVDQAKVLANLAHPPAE

IC50 [1]: > 60 µM (not active)
SMILES: Cc1cc(C(=O)Cn2nc(C(=O)O)c3ccccc3c2=O)c(C)n1CC(F)(F)F

SMILES: O=C(NC(=S)Nc1ncc(Br)cc1Br)c1ccccc1
EC50 [2]: 1.46 µM (active)

SMILES: Oc1ccc(Cl)cc1Cc1ccccc1 [CLOROPHENE]
IC50 [3]: > 20 µM (inactive)
IC50 [4]: > 20 µM (inactive)
IC50 [5]: > 20 µM (inactive)
IC50 [6]: 7.62 µM (inactive)
IC50 [7]: 13 µM (inactive)
IC50 [8]: > 20 µM (inactive)
IC50 [9]: > 6.67 µM (inactive)
IC50 [10]: 33.8 µM (inactive)

SMILES: CCS(=O)(=O)Nc1ccc(-c2nnc(SCC(=O)OC)o2)cc1
EC50 [11]: > 112 µM (not active)
EC50 [12]: 6.33 µM (active)
EC50 [13]: < 30 µM (active)

IC50 [14]: 17.9 µM (active)
IC50 [15]: 2.08 µM (active)
SMILES: O=c1oc2ccccc2n1CCn1c2ccccc2c2nc3ccccc3nc21
